Key:
Conditions in all cases: 72 h
U2OS [1] = experiment: cell viability relative to DMSO; higher = less toxic
Caco-2 [2] = experiment: as above
Calu-3 [3] = experiment: as above
HepG2 [4] = experiment: as above
Vero E6 [5] = experiment: as above
U2OS [6] = experiment: relative viability EC50 (midpoint between 100% and the lowest measured viability); higher = less toxic
Caco-2 [7] = experiment: as above
Calu-3 [8] = experiment: as above
HepG2 [9] = experiment: as above
Vero E6 [10] = experiment: as above
U2OS [11] = experiment: drug sensitivity score (DSS) for viability; higher = more toxic; extreme values may be limits of the assay
Caco-2 [12] = experiment: as above
Calu-3 [13] = experiment: as above
HepG2 [14] = experiment: as above
Vero E6 [15] = experiment: as above

Row | Structure (SMILES) | cell viability (U2OS [1]; 1 nM) [%] | cell viability (U2OS [1]; 10 nM) [%] | cell viability (U2OS [1]; 100 nM) [%] | cell viability (U2OS [1]; 1000 nM) [%] | cell viability (U2OS [1]; 10000 nM) [%] | cell viability (Caco-2 [2]; 1 nM) [%] | cell viability (Caco-2 [2]; 10 nM) [%] | cell viability (Caco-2 [2]; 100 nM) [%] | cell viability (Caco-2 [2]; 1000 nM) [%] | cell viability (Caco-2 [2]; 10000 nM) [%] | cell viability (Calu-3 [3]; 1 nM) [%] | cell viability (Calu-3 [3]; 10 nM) [%] | cell viability (Calu-3 [3]; 100 nM) [%] | cell viability (Calu-3 [3]; 1000 nM) [%] | cell viability (Calu-3 [3]; 10000 nM) [%] | cell viability (HepG2 [4]; 1 nM) [%] | cell viability (HepG2 [4]; 10 nM) [%] | cell viability (HepG2 [4]; 100 nM) [%] | cell viability (HepG2 [4]; 1000 nM) [%] | cell viability (HepG2 [4]; 10000 nM) [%] | cell viability (Vero E6 [5]; 1 nM) [%] | cell viability (Vero E6 [5]; 10 nM) [%] | cell viability (Vero E6 [5]; 100 nM) [%] | cell viability (Vero E6 [5]; 1000 nM) [%] | cell viability (Vero E6 [5]; 10000 nM) [%] | relative viability EC50 (U2OS [6]) [µM] | relative viability EC50 (Caco-2 [7]) [µM] | relative viability EC50 (Calu-3 [8]) [µM] | relative viability EC50 (HepG2 [9]) [µM] | relative viability EC50 (Vero E6 [10]) [µM] | drug sensitivity score (U2OS [11]) | drug sensitivity score (Caco-2 [12]) | drug sensitivity score (Calu-3 [13]) | drug sensitivity score (HepG2 [14]) | drug sensitivity score (Vero E6 [15])
1 | CCc1cc(/C(C)=N/OCc2ccc(C3CCCCC3)c(C(F)(F)F)c2)ccc1CN1CC(C(=O)O)C1 [siponimod] | 101 | 99.5 | 96.6 | 101 | 98.7 | 93.6 | 107 | 91.3 | 97.6 | 81.3 | 116 | 99.7 | 98.8 | 96.6 | 97.6 | 104 | 89.8 | 91.3 | 110 | 97.4 | 102 | 101 | 98.6 | 96.6 | 96.4 | > 10 | > 10 | > 10 | > 10 | > 10 | 0 | 0.8 | 0 | 0 | 0
2 | COc1nccnc1NS(=O)(=O)c1ccc(N)cc1 [sulfametopyrazine] | 102 | 95.4 | 104 | 96.8 | 98.9 | 99.7 | 87.3 | 101 | 89.7 | 102 | 98.5 | 97 | 98.1 | 101 | 102 | 97.6 | 99.7 | 103 | 91.9 | 99.4 | 102 | 107 | 95.2 | 100 | 97.5 | > 10 | > 10 | > 10 | > 10 | > 10 | 0 | 0 | 0 | 0 | 0
3 | CNC(=O)c1cc(COc2nnc(Nc3ccc(Cl)cc3)c3ccoc23)ccn1 [telatinib] | 101 | 97.6 | 101 | 98 | 92.4 | 96.6 | 95.4 | 99.3 | 97.2 | 98.8 | 106 | 106 | 98.8 | 96.6 | 104 | 85.9 | 106 | 97.7 | 101 | 114 | 92.7 | 95.5 | 92.1 | 93.3 | 102 | > 10 | > 10 | > 10 | > 10 | > 10 | 0 | 0 | 0 | 0 | 0
4 | C/N=C(/NC#N)NCCSCc1csc(NC(=N)N)n1 [tiotidine] | 105 | 96 | 97.9 | 98.6 | 106 | 102 | 94.4 | 104 | 104 | 110 | 99.5 | 97.2 | 91.7 | 101 | 104 | 96.4 | 105 | 98.3 | 108 | 113 | 91.5 | 96.6 | 96.6 | 92.8 | 108 | > 10 | > 10 | > 10 | > 10 | > 10 | 0 | 0 | 0 | 0 | 0
5 | CCC(=O)N1CCN(c2ccc(-n3c(=O)ccc4cnc5ccc(-c6cnc7ccccc7c6)cc5c43)cc2C(F)(F)F)CC1 [torin-1] | 100 | 103 | 91.8 | 42.2 | 19 | 97.5 | 101 | 89.6 | 49.4 | 31.1 | 108 | 98.7 | 86.4 | 33.7 | 32.4 | 101 | 97.9 | 95 | 53.8 | 26.3 | 93.4 | 94.4 | 88.2 | 57.9 | 39.4 | 0.512 | 0.426 | 0.183 | 0.684 | 0.404 | 12 | 10.7 | 14.4 | 9.8 | 9.3
6 | Nc1ccc(-c2ccc3ncc4ccc(=O)n(-c5cccc(C(F)(F)F)c5)c4c3c2)cn1 [torin-2] | 92.5 | 90.8 | 26.6 | 11 | 0.5 | 89.4 | 69.1 | 32.7 | 21.7 | 17.8 | 86.3 | 62.6 | 30.2 | 22.2 | 18.5 | 91.2 | 81.6 | 41.2 | 16.3 | 3.4 | 94.6 | 77.1 | 48.6 | 36 | 11.5 | 0.0481 | 0.0169 | 0.0111 | 0.0594 | 0.0738 | 27.3 | 26.6 | 28.1 | 24.5 | 21
7 | NCCCS(=O)(=O)O [tramiprosate] | 94.6 | 99.2 | 101 | 103 | 94.7 | 86.1 | 94.8 | 97.7 | 98.1 | 93 | 98.5 | 95.1 | 95 | 96.8 | 98.7 | 108 | 97.4 | 106 | 108 | 109 | 95.2 | 95.8 | 100 | 99.7 | 106 | > 10 | > 10 | > 10 | > 10 | > 10 | 0 | 0 | 0 | 0 | 0

Reference: the supplement of paper PMC13380429
